Results taken from patent publication US10351561B2, “Pyrazolo[3,4-b]pyridines and imidazo[1,5-b]pyridazines as PDE1 inhibitors” (H. Lundbeck A/S, priority 2016, dated 2019).

Columns and labels:
Type in all cases: biochemical
[1] = target: PDE1A (Homo sapiens, UniProt P54750); assay: PDE1 inhibition assay (PDE1A), SPA with tritium labelled cAMP; details: 15 nM tritium labelled cAMP, 1 hr at room temperature, SPA beads
[2] = target: PDE1B (Homo sapiens, UniProt Q01064); assay: PDE1 inhibition assay (PDE1B), SPA with tritium labelled cAMP; details: 15 nM tritium labelled cAMP, 1 hr at room temperature, SPA beads; read-out: PDE1B, IC50
Experimental: Reactions were initiated by addition of the cyclic nucleotide substrate, and reactions were allowed to proceed for 1 hr at room temperature before being terminated through mixing with 20 μL (0.2 mg) yttrium silicate SPA beads (PerkinElmer).

[3] = target: PDE1C (Homo sapiens, UniProt Q14123); assay: PDE1 inhibition assay (PDE1C), SPA with tritium labelled cAMP; details: 15 nM tritium labelled cAMP, 1 hr at room temperature, SPA beads
PDE1C, sequence (Q14123 whole entry): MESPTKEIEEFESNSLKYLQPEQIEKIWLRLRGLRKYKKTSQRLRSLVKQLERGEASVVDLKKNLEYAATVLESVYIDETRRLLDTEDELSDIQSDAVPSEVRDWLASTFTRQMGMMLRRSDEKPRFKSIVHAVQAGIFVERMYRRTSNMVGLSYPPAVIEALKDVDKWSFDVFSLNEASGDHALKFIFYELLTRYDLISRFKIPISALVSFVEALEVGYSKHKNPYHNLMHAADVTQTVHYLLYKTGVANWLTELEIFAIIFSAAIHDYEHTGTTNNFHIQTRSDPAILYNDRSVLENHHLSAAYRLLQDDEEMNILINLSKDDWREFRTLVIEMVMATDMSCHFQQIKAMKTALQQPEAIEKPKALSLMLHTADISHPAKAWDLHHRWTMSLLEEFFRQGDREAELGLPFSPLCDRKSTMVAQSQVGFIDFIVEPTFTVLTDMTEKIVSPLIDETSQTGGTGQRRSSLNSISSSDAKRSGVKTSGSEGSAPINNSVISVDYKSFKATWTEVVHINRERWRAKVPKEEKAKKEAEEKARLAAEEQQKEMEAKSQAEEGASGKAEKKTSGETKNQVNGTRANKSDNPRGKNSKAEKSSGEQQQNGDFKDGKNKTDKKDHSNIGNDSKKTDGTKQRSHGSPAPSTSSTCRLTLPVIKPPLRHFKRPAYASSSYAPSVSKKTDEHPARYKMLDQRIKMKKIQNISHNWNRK

PDE1A, sequence (P54750 whole entry): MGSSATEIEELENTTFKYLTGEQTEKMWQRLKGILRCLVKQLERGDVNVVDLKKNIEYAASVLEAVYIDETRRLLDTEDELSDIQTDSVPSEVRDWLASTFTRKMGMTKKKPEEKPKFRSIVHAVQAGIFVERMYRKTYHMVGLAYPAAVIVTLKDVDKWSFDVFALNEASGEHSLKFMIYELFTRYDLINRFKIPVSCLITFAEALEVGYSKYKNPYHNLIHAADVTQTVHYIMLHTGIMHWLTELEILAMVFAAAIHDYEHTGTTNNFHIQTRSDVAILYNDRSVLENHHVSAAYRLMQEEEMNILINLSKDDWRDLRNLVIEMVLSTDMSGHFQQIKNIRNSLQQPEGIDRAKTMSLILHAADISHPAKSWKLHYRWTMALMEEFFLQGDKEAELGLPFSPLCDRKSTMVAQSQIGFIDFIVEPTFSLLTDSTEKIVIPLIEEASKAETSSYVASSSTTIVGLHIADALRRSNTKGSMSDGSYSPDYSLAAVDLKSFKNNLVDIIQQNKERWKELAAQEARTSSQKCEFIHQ
PDE1B, sequence (Q01064 whole entry): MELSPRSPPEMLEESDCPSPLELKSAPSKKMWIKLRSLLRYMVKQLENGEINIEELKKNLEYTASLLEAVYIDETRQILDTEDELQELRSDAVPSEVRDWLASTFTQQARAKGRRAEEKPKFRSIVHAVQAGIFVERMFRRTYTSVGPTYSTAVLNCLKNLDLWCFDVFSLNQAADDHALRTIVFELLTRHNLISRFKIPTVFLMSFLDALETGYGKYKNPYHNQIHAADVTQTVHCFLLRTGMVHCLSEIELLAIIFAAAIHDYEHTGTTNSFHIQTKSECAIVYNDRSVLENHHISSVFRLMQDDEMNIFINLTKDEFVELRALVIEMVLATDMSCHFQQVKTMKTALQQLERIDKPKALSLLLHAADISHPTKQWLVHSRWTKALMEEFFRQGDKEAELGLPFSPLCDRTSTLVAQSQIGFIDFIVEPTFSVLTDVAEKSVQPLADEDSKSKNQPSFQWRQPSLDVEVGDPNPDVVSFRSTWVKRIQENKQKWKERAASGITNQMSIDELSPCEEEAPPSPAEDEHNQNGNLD

IC50 [1]: 14 nM
IC50 [2]: 2.6 nM
IC50 [3]: 18 nM
Structure (SMILES): CCOc1ncccc1-c1cc(NCc2ccnc(OC)c2)c2c(C(C)C)nn(C)c2n1 [Example 7, 6-(2-ethoxy-3-pyridyl)-3-isopropyl-N-[(2-methoxy-4-pyridyl)methyl]-1-methyl-pyrazolo[3,4-b]pyridin-4-amine]
